This note sets out measurements from patent US20250197387A1, “BCL-XL DEGRADERS AND USES THEREOF” (Kymera Therapeutics, Inc., priority 2021, published 2025).

For one assay, the target named is T1, BCL-XL (Homo sapiens, UniProt Q07817).
T1 construct: endogenous in cells; host or cells: MOLT-4
The assay is described as follows: BCL-XL degradation assay, western blot in MOLT-4 cells, 16 h. The format is cell-based. The following applies: for DC50: read-out: Bcl-xL WB in MOLT-4 degradation 16 h: Mean external-Abs DC50. In short, it runs like this: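 Infrared-imaged western blots quantified BCL-xL (normalised against beta-actin/GAPDH) after 16 hr, 37° C exposure of MOLT-4 cells to 0.02-10 μM compound; results given as DC50 and Dmax % bins.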

The test system of another assay is MOLT-4 cells. In words: CTG (CellTiter-Glo) cell viability assay, MOLT-4. Type of assay: cell-based. The following applies: Homo sapiens, 3 day incubation, read-out: CTG Cell Viability Assay - MOLT-4 3 day: Average external-IC50. The procedure, abridged: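 IC50 is from a three-parameter logistic fit of CellTiter-Glo luminescence after 3-day treatment of cells seeded at 10,000 per well. Codes: MOLT-4 A <0.1, B 0.1-1.0, C >1.0-3.0, D >3.0 μM; Caki-2 A <0.1, B 0.1-1.0, C >1.0-10.0, D >10.0 μM.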

The mark [1] stands for this setting: western blot, MOLT-4 cells, 16 h, read-out: Bcl-xL WB in MOLT-4 degradation 16 h: Average Dmax %.
Setting [2] is: western blot, MOLT-4 cells, 16 h.

What is called Dmax is the largest share of the target that was removed. The DC50 is the concentration giving 50% degradation. As a reminder, the IC50 is the concentration needed to halve the response being measured.

Read-outs that look alike come from different tables or passages of the source.

T1 sequence (Q07817 whole entry): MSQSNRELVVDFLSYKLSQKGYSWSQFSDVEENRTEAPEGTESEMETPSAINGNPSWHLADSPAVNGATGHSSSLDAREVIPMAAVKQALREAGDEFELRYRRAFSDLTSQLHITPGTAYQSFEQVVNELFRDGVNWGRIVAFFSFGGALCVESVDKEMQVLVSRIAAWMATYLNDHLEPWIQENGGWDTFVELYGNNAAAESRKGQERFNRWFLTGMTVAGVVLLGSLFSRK

Turning to `Cc1ncsc1-c1ccc([C@H](C)NC(=O)[C@@H]2C[C@@H](O)CN2C(=O)[C@@H](NC(=O)N2CC3(CN(CCCS(=O)(=O)NC(=O)c4nc(N5CCc6cccc(C(=O)Nc7nc8ccccc8s7)c6C5)ccc4-c4cnn(CC5CCCCC5)c4C)C3)C2)C(C)(C)C)cc1` [I-151], the maximal degradation (Dmax) on BCL-XL (setting [1]) was less than 50%. At BCL-XL (setting [2]), the DC50 fell in the range of 0.1 to 0.5 µM. The IC50 in the assay with MOLT-4 cells (MOLT-4, 72 h) fell in the range of 1 to 3 µM.

In the case of `C#Cc1ccc([C@H](CO)NC(=O)[C@@H]2C[C@@H](O)CN2C(=O)[C@@H](NC(=O)CCCCCC(=O)N2CCN(CC[C@H](CSc3ccccc3)Nc3ccc(S(=O)(=O)NC(=O)c4ccc(N5CCN(CC6=C(c7ccc(Cl)cc7)CCC(C)(C)C6)CC5)cc4)cc3S(=O)(=O)C(F)(F)F)CC2)C(C)(C)C)cc1` [I-116], the Dmax on BCL-XL (setting [1]) is greater than 75%. The DC50 at BCL-XL (setting [2]) fell in the range of 0.01 to 0.1 µM. In the assay with MOLT-4 cells (MOLT-4, 72 h), the IC50 was less than 0.1 µM.

Take `Cc1ncsc1-c1ccc(CNC(=O)[C@@H]2C[C@@H](O)CN2C(=O)[C@@H](NC(=O)C2(C#N)CC2)C(C)(C)C)c(OCC(=O)N2CCN(CC[C@H](CSc3ccccc3)Nc3ccc(S(=O)(=O)NC(=O)c4ccc(N5CCN(CC6=C(c7ccc(Cl)cc7)CCC(C)(C)C6)CC5)cc4)cc3S(=O)(=O)C(F)(F)F)CC2)c1` [I-133]: on BCL-XL (setting [1]), the maximal degradation (Dmax) was greater than 75%. The DC50 at BCL-XL (setting [2]) was 0.01 to 0.1 µM. For the same compound, the half-inhibitory concentration (IC50) with MOLT-4 cells (MOLT-4, 72 h) lay in the range of 1 to 3 µM.

Take `Cc1ncsc1-c1ccc([C@H](C)NC(=O)[C@@H]2C[C@@H](O)CN2C(=O)[C@@H](NC(=O)N2CCC(CN3CCC(CNC(=O)c4nc(N5CCc6cccc(C(=O)Nc7nc8ccccc8s7)c6C5)ccc4-c4cnn(CC5CCCCC5)c4C)CC3)CC2)C(C)(C)C)cc1` [I-144]: on BCL-XL (setting [1]), the maximal degradation (Dmax) was 50 to 75%. The DC50 at BCL-XL (setting [2]) fell in the range of 0.5 to 1 µM. For the same compound, the 50% inhibitory concentration (IC50) with MOLT-4 cells (MOLT-4, 72 h) lay within 0.1 to 1 µM.

On to `Cc1ncsc1-c1ccc(CNC(=O)[C@@H]2C[C@@H](O)CN2C(=O)[C@@H](c2cc(N3CC4(CN(C(=O)CCCCC(=O)N(C)CC#Cc5ccc(OCCCc6ccc(N7CCc8cccc(C(=O)Nc9nc%10ccccc%10s9)c8C7)nc6C(=O)O)c(F)c5)C4)C3)no2)C(C)C)cc1` [I-193], for which the maximal degradation (Dmax) on BCL-XL (setting [1]) is greater than 75%. Also, the 50% degradation concentration (DC50) at BCL-XL (setting [2]) is 0.01 to 0.1 µM. The half-maximal inhibitory concentration (IC50) with MOLT-4 cells (MOLT-4, 72 h) was 0.1 to 1 µM.

Consider `Cc1ncsc1-c1ccc([C@H](C)NC(=O)[C@@H]2C[C@@H](O)CN2C(=O)[C@H](NC(=O)CCCCCCCS(=O)(=O)NC(=O)c2nc(N3CCc4cccc(C(=O)Nc5nc6ccccc6s5)c4C3)ccc2-c2cnn(C)c2C)C(C)(C)C)cc1` [I-145], for which the Dmax at BCL-XL (setting [1]) was greater than 75%. The 50% degradation concentration (DC50) at BCL-XL (setting [2]) lay within 0.1 to 0.5 µM. Moreover, the IC50 in the assay with MOLT-4 cells (MOLT-4, 72 h) is greater than 3 µM.

On to `Cc1ncsc1-c1ccc([C@H](C)NC(=O)[C@@H]2C[C@@H](O)CN2C(=O)[C@H](c2cc(OC3CCN(CCCS(=O)(=O)NC(=O)c4nc(N5CCc6cccc(C(=O)Nc7nc8ccccc8s7)c6C5)ccc4-c4cnn(CC5CCCCC5)c4C)CC3)no2)C(C)C)cc1` [I-174], for which the Dmax at BCL-XL (setting [1]) is less than 50%. Besides, the DC50 at BCL-XL (setting [2]) was greater than 1 µM. In the assay on MOLT-4 cells (MOLT-4, 72 h), the IC50 is 1 to 3 µM.

Consider `Cc1cc([C@H](C(=O)N2C[C@H](O)C[C@H]2C(=O)NCc2ccc(-c3scnc3C)cc2OCC(=O)N2CCN(CC[C@H](CSc3ccccc3)Nc3ccc(S(=O)(=O)NC(=O)c4ccc(N5CCN(CC6=C(c7ccc(Cl)cc7)CCC(C)(C)C6)CC5)cc4)cc3S(=O)(=O)C(F)(F)F)CC2)C(C)C)on1` [I-134], for which the Dmax at BCL-XL (setting [1]) was less than 50%. For the same compound, on BCL-XL (setting [2]), the DC50 was greater than 1 µM. In addition, in the assay with MOLT-4 cells (MOLT-4, 72 h), the half-inhibitory concentration (IC50) was greater than 3 µM.

For the compound `Cc1ncsc1-c1ccc([C@H](C)NC(=O)[C@@H]2C[C@@H](O)CN2C(=O)[C@@H](NC(=O)CCCCCCC(=O)N2CCN(CC3(C)CCC(c4ccc(Cl)cc4)=C(CN4CCN(c5ccc(C(=O)NS(=O)(=O)c6ccc(NCC78CC9CC(CC(O)(C9)C7)C8)c(S(=O)(=O)C(F)(F)F)c6)cc5)CC4)C3)CC2)C(C)(C)C)cc1` (stereo partly drawn) [I-398], at BCL-XL (setting [1]), the Dmax is less than 50%. For the same compound, the DC50 at BCL-XL (setting [2]) is greater than 1 µM. Also, the half-maximal inhibitory concentration (IC50) with MOLT-4 cells (MOLT-4, 72 h) is greater than 3 µM.

In the case of `Cc1ncsc1-c1ccc([C@H](C)NC(=O)[C@@H]2C[C@@H](O)CN2C(=O)[C@@H](NC(=O)CCCCCCCC(=O)NCCOc2ccc(C(=O)Nc3nc4ccccc4s3)c3c2CCN(c2ccc(-c4cnn(CC5CCCCC5)c4C)c(C(=O)O)n2)C3)C(C)(C)C)cc1` [I-45], on BCL-XL (setting [1]), the Dmax is greater than 75%. For the same compound, the half-maximal degradation concentration (DC50) on BCL-XL (setting [2]) lay within 0.01 to 0.1 µM. Besides, the IC50 with MOLT-4 cells (MOLT-4, 72 h) fell in the range of 1 to 3 µM.

With `Cc1ncsc1-c1ccc([C@H](C)NC(=O)[C@@H]2C[C@@H](O)CN2C(=O)[C@@H](NC(=O)CCCCCC(=O)N2CCN(CC[C@H](CSc3ccccc3)Nc3ccc(S(=O)(=O)NC(=O)c4csc(N5CCc6cccc(C(=O)Nc7nc8ccccc8s7)c6C5)n4)cc3S(=O)(=O)C(F)(F)F)CC2)C(C)(C)C)cc1` [I-108], the maximal degradation (Dmax) on BCL-XL (setting [1]) was greater than 75%. The DC50 on BCL-XL (setting [2]) is 0.01 to 0.1 µM. Besides, the concentration for half-maximal inhibition (IC50) with MOLT-4 cells (MOLT-4, 72 h) fell in the range of 1 to 3 µM.

For `Cc1ncsc1-c1ccc([C@H](CC(=O)N(C)CC(=O)N2CCN(CC[C@H](CSc3ccccc3)Nc3ccc(S(=O)(=O)NC(=O)c4ccc(N5CCN(CC6=C(c7ccc(Cl)cc7)CCC(C)(C)C6)CC5)cc4)cc3S(=O)(=O)C(F)(F)F)CC2)NC(=O)[C@@H]2C[C@@H](O)CN2C(=O)[C@@H](NC(=O)C2(F)CC2)C(C)(C)C)cc1` [I-136], the Dmax on BCL-XL (MOLT-4, read-out: Bcl-xL WB in MOLT-4 degradation 16 h: Average Dmax %) was less than 50%. For the same compound, the 50% degradation concentration (DC50) on BCL-XL (setting [2]) is greater than 1 µM. For the same compound, in the assay with MOLT-4 cells (72 h), the concentration for half-maximal inhibition (IC50) was greater than 3 µM.

Take `Cc1ncsc1-c1ccc([C@@H](CC(=O)N(C)CCCC(=O)N2CCN(CC[C@H](CSc3ccccc3)Nc3ccc(S(=O)(=O)NC(=O)c4ccc(N5CCN(CC6=C(c7ccc(Cl)cc7)CCC(C)(C)C6)CC5)cc4)cc3S(=O)(=O)C(F)(F)F)CC2)NC(=O)[C@@H]2C[C@@H](O)CN2C(=O)[C@@H](NC(=O)C2(F)CC2)C(C)(C)C)cc1` [I-139]: the Dmax at BCL-XL (setting [1]) was greater than 75%. The DC50 on BCL-XL (setting [2]) fell in the range of 0.1 to 0.5 µM. Besides, the IC50 in the assay on MOLT-4 cells (MOLT-4, 72 h) fell in the range of 1 to 3 µM.

In the case of `Cc1ncsc1-c1ccc(CNC(=O)[C@@H]2C[C@@H](O)CN2C(=O)[C@@H](NC(=O)C2(F)CC2)C(C)(C)C)c(OCCCCCCCC(=O)NCCOc2ccc(C(=O)Nc3nc4ccccc4s3)c3c2CCN(c2ccc(-c4cnn(CC5CCCCC5)c4C)c(C(=O)O)n2)C3)c1` [I-48], the Dmax at BCL-XL (setting [1]) was 50 to 75%. Moreover, the DC50 at BCL-XL (setting [2]) lay within 0.1 to 0.5 µM. Also, in the assay on MOLT-4 cells (MOLT-4, 72 h), the half-maximal inhibitory concentration (IC50) was in the range of 0.1 to 1 µM.

`Cc1cc(N(C)c2ccc(-c3cnn(CC4CCCCC4)c3C)c(C(=O)NS(=O)(=O)CCCCCOc3cc(-c4scnc4C)ccc3CNC(=O)[C@@H]3C[C@@H](O)CN3C(=O)[C@@H](NC(=O)C3(F)CC3)C(C)(C)C)n2)nnc1Nc1nc2ccccc2s1` [I-188]: at BCL-XL (setting [1]), the greatest degradation seen (Dmax) fell in the range of 50 to 75%. In addition, the DC50 on BCL-XL (setting [2]) is greater than 1 µM. Further, the IC50 with MOLT-4 cells (MOLT-4, 72 h) is greater than 3 µM.

As for `Cc1ncsc1-c1ccc(CNC(=O)[C@@H]2CC(O)CN2C(=O)[C@@H](NC(=O)C2(F)CC2)C(C)(C)C)c(OCCCCCCCCS(=O)(=O)NC(=O)c2nc(N3CCc4cccc(C(=O)Nc5nc6ccccc6s5)c4C3)ccc2-c2cnn(CC34CC5CC(CC(C5)C3)C4)c2C)c1` (stereo partly drawn) [I-122], the greatest degradation seen (Dmax) on BCL-XL (setting [1]) is greater than 75%. Moreover, the DC50 at BCL-XL (setting [2]) is less than 0.01 µM. For the same compound, in the assay with MOLT-4 cells (MOLT-4, 72 h), the IC50 is less than 0.1 µM.

With `Cc1ncsc1-c1ccc(CNC(=O)[C@@H]2C[C@@H](O)CN2C(=O)[C@@H](NC(=O)C2(F)CC2)C(C)(C)C)c(OCCCC(=O)NCCOc2ccc(C(=O)Nc3nc4ccccc4s3)c3c2CCN(c2ccc(-c4cnn(CC5CCCCC5)c4C)c(C(=O)O)n2)C3)c1` [I-46], the Dmax at BCL-XL (setting [1]) lay within 50 to 75%. Further, the DC50 at BCL-XL (setting [2]) fell in the range of 0.1 to 0.5 µM. Also, in the assay with MOLT-4 cells (MOLT-4, 72 h), the half-maximal inhibitory concentration (IC50) fell in the range of 1 to 3 µM.

For `Cc1ncsc1-c1ccc([C@H](C)NC(=O)[C@@H]2C[C@@H](O)CN2C(=O)[C@H](c2cc(N3CCN(c4ccc(S(=O)(=O)NC(=O)c5nc(N6CCc7cccc(C(=O)Nc8nc9ccccc9s8)c7C6)ccc5-c5cnn(CC6CCCCC6)c5C)cc4)CC3)no2)C(C)C)cc1` [I-213], the Dmax on BCL-XL (setting [1]) lay within 50 to 75%. The 50% degradation concentration (DC50) on BCL-XL (setting [2]) was in the range of 0.1 to 0.5 µM. Besides, the IC50 in the assay with MOLT-4 cells (MOLT-4, 72 h) is 1 to 3 µM.
